Earlier results, collected in patent US7163917B2, “Synthesis method of alanylglutamine” (priority 2002, dated 2007).
Values belong to the compound of their own block, whether it stands above or below them. Peptide text beside a SMILES is read from it.

Experiments:
[1] = within human body; quickly degraded into composition amino acids
[2] = solution, storage, heating to sterilize
[3] = background statement
[4] = healthy human body, long period intravenous drip

half-life (in words) [1]: short
Compound: NCC(=O)N[C@@H](CCC(N)=O)C(=O)O [glycylglutamine, L-glycyl-L-glutamine, reference compound] (H-Gly-Gln-OH)

stability (in words) [2]: stable at heating
quantity absorbed that is excreted from urea [3]: 40%
Compound: CC(=O)N[C@@H](CCC(N)=O)C(=O)O [acetylglutamine, reference compound]

solubility (in words): low in solubility
Compound: NC(=O)CC[C@H](N)C(=O)O [GLN, glutamine]

kidney functions [4]: not influenced
half-life (in words) [1]: short
solubility relative to GLN monomer (synthesized by chemical method, after purification): 20 times
Compound: C[C@H](N)C(=O)N[C@@H](CCC(N)=O)C(=O)O [L-Ala-L-Gln, L-alanyl-L-glutamine] (H-Ala-Gln-OH)
side effects and harmful reaction [4]: no side effects and harmful reaction occur
stability (in words) [2]: stable in storage and at heating for sterilization
